# The supplement of paper PMC8497498
# Experiments:
# [1] = test system: Plasmodium vivax liver stage (primary human hepatocyte culture)
# Method in brief: (§1)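 Using CDD Vault curves from the highest-quality run, with toxic bell-shaped points excluded, potency, maximum inhibition and nuclei-loss cytotoxicity were determined. The assay used primary human hepatocytes infected with P. vivax sporozoites from patient-isolate-fed mosquitoes, dosed by 40 nL pin transfers from 1000× DMSO plates at 8 points (10 uM[…]) or 12 points in duplicate (50 uM–280 pM). Schizont growth area, hypnozoite count and hepatic nuclei were measured by high-content imaging of fixed, immunostained wells and normalised to DMSO and positive-control wells.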
# [2] = test system: Plasmodium cynomolgi Berok K4 asexual blood stage; assay: EC50 asexual blood stage growth
# Method in brief: (§2)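 Reference compounds were assessed with SYBR Green proliferation assays against the asexual blood stages of P. falciparum, assayed over 72 h with AlbuMAX, and of P. cynomolgi. In the P. cynomolgi assays, ten-point threefold dilutions in DMSO were dispensed acoustically at 500-fold dilution, giving a top dose of 10 µM, and plates included vehicle and positive-control wells in 0.5% AlbuMAX or 20% macaque serum media. EC50 values represent geometric means over independent experiments.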
# [3] = test system: Plasmodium falciparum 3D7 asexual blood stage; assay: EC50 asexual blood stage growth; details: serum: 0.5% AlbuMAX
# Method in brief: as §2
# [4] = test system: primary human hepatocytes; assay: CC20 hepatic nuclei (20% reduction); higher = less toxic
# Method in brief: as §1
# [5] = test system: Plasmodium vivax liver stage (primary human hepatocyte culture); assay: maximum inhibition of schizont net growth area; higher = more active
# Method in brief: as §1
# [6] = P. vivax isolate: Pv914, hepatocyte lot: BGW, assay mode: Prophylactic, 6-day
# [7] = P. vivax isolate: Pv914, hepatocyte lot: BGW, assay mode: Radical Cure, 8-day (treatment from day 5 post-infection)
# [8] = serum: 20% M. fascicularis serum
# [9] = P. vivax isolate: Pv360, hepatocyte lot: UBV, assay mode: Radical Cure, 8-day (treatment from day 5 post-infection)
# [10] = P. vivax isolate: Pv360, hepatocyte lot: UBV, assay mode: Prophylactic, 6-day
SMILES,"EC50 hypnozoite quantity [1, 6]","EC50 schizont net growth area [1, 6]","EC50 hypnozoite quantity [1, 7]","EC50 schizont net growth area [1, 7]",EC50 asexual blood stage growth ([2]; serum: 0.5% AlbuMAX),"EC50 asexual blood stage growth [2, 8]",EC50 asexual blood stage growth [3],"CC20 hepatic nuclei [4, 6]","CC20 hepatic nuclei [4, 7]","maximum inhibition [5, 6]","maximum inhibition [5, 7]","EC50 hypnozoite quantity [1, 9]","EC50 schizont net growth area [1, 9]","CC20 hepatic nuclei [4, 9]","maximum inhibition [5, 9]","EC50 hypnozoite quantity [1, 10]","CC20 hepatic nuclei [4, 10]","maximum inhibition [5, 10]"
CS(=O)(=O)c1ccc(-c2cnc(N)c(-c3ccc(C(F)(F)F)nc3)n2)cc1,7.29 nM,4.76 nM,> 10000 nM,23.9 nM,4880 nM,629 nM,178 nM,> 10000 nM,> 10000 nM,101%,96.4%,–,–,–,–,–,–,–
Clc1ccc2c(N[C@H]3CCCC[C@@H]3Nc3ccnc4cc(Cl)ccc34)ccnc2c1 [Ro 47-7737],> 3330 nM,> 3330 nM,–,–,4.2 nM,3.6 nM,2 nM,> 3330 nM,–,99%,–,> 10000 nM,> 3330 nM,> 10000 nM,70.6%,–,–,–
COc1cc2[nH]c(C)c(-c3ccc(Oc4ccc(OC(F)(F)F)cc4)cc3)c(=O)c2cc1Cl [ELQ-300],> 1110 nM,57.6 nM,–,–,42 nM,3.3 nM,47.1 nM,> 10000 nM,–,97.9%,–,–,–,–,–,–,–,–
COC1OC2OC3(C)CCC4C(C)CCC(C1C)C24OO3 (stereo not given) [Artemether],–,–,–,–,6.8 nM,6.5 nM,57.5 nM,–,–,–,–,–,–,–,–,> 10000 nM,> 10000 nM,60.4%
